ChEMBL document CHEMBL3991601, “The target landscape of clinical kinase drugs” (Science, 2017)
Calls of active or inactive are those of the source. Rule as the data show it, for most assays here: actives have a measured Kd and inactives only a lower limit.

Key:
[1] = molecular target: TRAF2 and NCK-interacting protein kinase (Homo sapiens, UniProt Q9UKE5)
[2] = molecular target: Cyclin-dependent kinase 12 (Homo sapiens, UniProt Q9NYV4)
[3] = molecular target: Maternal embryonic leucine zipper kinase (Homo sapiens, UniProt Q14680)
[4] = molecular target: T1, Cyclin-G-associated kinase (Homo sapiens, UniProt O14976)
T1 sequence (O14976 whole entry): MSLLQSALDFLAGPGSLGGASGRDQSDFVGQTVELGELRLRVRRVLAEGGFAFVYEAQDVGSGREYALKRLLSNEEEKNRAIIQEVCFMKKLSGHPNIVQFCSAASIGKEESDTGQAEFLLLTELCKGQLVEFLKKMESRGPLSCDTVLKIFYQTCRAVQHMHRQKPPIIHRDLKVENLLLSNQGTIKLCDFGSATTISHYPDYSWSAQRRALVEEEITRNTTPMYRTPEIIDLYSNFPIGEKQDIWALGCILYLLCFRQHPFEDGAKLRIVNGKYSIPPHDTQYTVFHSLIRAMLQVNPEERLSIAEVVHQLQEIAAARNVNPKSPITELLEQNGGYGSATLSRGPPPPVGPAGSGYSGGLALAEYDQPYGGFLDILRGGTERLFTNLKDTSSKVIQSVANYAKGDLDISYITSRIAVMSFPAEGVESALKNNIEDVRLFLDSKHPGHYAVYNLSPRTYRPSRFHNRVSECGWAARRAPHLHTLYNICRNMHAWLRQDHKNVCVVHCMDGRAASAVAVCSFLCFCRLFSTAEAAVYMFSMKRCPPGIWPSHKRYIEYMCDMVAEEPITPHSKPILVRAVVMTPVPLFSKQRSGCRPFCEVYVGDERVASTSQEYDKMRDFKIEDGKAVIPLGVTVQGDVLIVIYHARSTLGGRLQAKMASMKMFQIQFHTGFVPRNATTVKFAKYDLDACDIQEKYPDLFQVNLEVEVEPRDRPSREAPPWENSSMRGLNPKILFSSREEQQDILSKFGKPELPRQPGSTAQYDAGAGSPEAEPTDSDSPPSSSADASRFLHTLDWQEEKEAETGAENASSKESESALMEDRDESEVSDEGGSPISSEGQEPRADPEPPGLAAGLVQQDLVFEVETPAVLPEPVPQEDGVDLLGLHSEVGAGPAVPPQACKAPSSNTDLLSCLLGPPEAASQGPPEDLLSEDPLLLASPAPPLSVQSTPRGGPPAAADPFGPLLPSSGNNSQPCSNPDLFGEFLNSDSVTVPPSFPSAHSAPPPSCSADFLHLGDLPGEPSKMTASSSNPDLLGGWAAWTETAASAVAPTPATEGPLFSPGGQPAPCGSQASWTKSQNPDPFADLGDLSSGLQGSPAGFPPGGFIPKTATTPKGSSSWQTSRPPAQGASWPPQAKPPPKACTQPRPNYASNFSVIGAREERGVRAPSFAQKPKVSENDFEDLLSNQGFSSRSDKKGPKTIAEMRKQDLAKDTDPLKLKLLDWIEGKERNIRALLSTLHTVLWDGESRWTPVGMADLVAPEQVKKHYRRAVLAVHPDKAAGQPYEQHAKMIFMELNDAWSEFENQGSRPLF

[5] = molecular target: Ribosomal protein S6 kinase alpha-6 (Homo sapiens, UniProt Q9UK32)
[6] = molecular target: Casein kinase I isoform gamma-1 (Homo sapiens, UniProt Q9HCP0)
[7] = molecular target: T2, ATP-dependent RNA helicase DDX1 (Homo sapiens, UniProt Q92499)
T2 sequence (Q92499 whole entry): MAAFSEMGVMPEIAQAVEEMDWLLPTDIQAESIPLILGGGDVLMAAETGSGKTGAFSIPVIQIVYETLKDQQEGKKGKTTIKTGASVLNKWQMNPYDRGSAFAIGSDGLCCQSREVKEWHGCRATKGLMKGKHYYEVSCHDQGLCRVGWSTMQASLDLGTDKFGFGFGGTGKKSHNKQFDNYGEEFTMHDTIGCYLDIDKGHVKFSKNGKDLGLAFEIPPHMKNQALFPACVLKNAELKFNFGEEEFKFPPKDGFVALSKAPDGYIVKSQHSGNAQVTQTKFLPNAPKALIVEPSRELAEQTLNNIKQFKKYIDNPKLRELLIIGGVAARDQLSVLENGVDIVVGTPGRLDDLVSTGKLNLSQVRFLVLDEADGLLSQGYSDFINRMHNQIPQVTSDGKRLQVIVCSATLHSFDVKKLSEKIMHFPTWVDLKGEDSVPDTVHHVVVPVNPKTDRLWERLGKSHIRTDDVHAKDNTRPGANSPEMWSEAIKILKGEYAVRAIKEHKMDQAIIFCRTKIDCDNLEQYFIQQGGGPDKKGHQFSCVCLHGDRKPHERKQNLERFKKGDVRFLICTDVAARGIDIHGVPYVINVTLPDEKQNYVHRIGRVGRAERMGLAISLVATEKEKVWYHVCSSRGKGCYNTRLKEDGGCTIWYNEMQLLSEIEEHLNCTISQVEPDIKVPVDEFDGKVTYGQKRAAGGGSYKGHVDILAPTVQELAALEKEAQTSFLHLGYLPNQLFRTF

[8] = molecular target: RAC-gamma serine/threonine-protein kinase (Homo sapiens, UniProt Q9Y243)
[9] = molecular target: Tyrosine-protein kinase SYK (Homo sapiens, UniProt P43405)
[10] = molecular target: Tyrosine-protein kinase HCK (Homo sapiens, UniProt P08631)
[11] = molecular target: NADH dehydrogenase [ubiquinone] 1 alpha subcomplex subunit 13 (Homo sapiens, UniProt Q9P0J0)
Also: in the data inactive means no Kd found up to 30 µM.

Sequence of Tyrosine-protein kinase HCK (P08631 whole entry): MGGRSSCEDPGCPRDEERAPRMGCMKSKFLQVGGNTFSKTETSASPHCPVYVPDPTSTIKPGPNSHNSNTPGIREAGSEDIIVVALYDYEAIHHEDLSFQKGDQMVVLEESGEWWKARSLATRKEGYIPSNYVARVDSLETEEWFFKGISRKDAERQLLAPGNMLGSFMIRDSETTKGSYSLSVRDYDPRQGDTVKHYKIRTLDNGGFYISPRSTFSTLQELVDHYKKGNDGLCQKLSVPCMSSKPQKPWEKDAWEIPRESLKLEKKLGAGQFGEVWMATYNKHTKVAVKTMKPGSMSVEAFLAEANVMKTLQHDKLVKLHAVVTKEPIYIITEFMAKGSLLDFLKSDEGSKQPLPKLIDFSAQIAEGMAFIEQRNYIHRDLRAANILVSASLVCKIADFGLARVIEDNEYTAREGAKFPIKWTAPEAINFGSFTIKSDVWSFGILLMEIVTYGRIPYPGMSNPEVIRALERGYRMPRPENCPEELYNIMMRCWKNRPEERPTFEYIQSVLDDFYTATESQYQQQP
Sequence of Maternal embryonic leucine zipper kinase (Q14680 whole entry): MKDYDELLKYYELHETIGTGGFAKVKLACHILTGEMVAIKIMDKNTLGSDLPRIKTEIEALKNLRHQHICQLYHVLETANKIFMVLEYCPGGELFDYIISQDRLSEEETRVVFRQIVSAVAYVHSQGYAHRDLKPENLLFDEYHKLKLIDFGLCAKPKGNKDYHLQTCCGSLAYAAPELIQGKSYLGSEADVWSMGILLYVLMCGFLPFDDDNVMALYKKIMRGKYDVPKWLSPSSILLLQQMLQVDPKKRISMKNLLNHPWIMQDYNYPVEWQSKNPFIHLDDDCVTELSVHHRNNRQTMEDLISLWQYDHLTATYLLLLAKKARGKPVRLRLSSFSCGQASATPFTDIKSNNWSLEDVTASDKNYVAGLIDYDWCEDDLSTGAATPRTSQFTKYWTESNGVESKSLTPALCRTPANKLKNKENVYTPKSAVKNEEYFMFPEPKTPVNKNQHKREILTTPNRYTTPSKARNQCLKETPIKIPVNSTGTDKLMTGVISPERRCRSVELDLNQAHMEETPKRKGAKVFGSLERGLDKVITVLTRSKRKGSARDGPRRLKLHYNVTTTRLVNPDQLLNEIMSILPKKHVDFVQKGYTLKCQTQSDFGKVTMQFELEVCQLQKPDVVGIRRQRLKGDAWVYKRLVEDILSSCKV
Sequence of RAC-gamma serine/threonine-protein kinase (Q9Y243 whole entry): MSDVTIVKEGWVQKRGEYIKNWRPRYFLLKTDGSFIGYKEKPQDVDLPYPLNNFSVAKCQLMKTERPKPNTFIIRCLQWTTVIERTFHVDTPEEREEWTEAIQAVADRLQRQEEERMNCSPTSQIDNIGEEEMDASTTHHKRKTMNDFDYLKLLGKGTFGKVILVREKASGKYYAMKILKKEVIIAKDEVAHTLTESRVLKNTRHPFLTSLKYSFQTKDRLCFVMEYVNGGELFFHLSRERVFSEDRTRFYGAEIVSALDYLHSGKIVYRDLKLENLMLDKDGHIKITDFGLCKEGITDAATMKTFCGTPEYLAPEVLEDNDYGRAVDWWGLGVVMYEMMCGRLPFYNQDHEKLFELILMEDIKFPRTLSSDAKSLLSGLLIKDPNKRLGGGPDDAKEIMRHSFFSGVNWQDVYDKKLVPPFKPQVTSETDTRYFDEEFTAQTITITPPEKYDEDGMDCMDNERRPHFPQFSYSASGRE
Sequence of TRAF2 and NCK-interacting protein kinase (Q9UKE5 whole entry): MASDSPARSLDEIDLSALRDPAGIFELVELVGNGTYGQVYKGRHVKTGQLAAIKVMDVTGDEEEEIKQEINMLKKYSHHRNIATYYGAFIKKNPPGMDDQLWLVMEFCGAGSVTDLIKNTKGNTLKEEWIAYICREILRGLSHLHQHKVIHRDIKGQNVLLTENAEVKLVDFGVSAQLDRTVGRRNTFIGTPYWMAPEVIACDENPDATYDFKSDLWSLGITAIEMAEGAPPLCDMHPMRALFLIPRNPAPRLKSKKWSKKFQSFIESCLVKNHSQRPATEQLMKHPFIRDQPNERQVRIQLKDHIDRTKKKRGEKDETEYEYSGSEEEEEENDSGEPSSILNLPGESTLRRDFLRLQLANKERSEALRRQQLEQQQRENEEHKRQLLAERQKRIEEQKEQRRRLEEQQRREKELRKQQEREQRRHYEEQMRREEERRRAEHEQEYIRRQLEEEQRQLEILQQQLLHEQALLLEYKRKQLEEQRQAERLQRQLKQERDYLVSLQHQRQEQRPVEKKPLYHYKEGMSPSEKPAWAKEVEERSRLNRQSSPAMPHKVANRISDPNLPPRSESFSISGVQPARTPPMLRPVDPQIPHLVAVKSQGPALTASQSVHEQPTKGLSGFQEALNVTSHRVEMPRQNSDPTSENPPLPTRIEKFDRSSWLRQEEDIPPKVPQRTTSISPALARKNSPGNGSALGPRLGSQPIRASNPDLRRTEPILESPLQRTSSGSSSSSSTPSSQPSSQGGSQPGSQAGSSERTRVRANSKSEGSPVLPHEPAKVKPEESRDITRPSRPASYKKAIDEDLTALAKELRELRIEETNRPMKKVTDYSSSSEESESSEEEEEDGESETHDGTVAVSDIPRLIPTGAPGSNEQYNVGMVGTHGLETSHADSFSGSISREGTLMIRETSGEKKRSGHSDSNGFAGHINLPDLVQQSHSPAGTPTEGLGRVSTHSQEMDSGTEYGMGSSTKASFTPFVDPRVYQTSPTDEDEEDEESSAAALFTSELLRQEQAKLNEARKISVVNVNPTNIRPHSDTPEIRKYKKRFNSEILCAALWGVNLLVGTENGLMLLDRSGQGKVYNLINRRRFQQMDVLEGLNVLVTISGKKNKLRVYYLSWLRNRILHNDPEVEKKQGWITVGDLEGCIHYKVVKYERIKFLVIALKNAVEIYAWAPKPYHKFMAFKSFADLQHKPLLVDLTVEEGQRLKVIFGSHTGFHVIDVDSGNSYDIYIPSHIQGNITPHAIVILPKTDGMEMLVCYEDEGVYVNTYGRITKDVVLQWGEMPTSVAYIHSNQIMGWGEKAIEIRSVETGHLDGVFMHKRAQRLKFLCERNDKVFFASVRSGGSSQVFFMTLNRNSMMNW
Sequence of Casein kinase I isoform gamma-1 (Q9HCP0 whole entry, canonical isoform): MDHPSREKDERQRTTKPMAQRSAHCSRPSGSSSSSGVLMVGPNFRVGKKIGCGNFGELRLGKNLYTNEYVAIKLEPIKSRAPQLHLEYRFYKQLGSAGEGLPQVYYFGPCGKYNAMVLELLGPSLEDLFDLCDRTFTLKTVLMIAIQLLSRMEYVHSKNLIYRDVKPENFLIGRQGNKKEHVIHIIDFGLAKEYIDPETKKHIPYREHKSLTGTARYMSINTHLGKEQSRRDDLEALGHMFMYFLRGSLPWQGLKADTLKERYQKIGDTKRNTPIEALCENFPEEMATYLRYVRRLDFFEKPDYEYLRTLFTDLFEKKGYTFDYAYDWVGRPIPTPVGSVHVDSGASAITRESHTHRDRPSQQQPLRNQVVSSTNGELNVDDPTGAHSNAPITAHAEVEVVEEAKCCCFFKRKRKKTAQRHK
Sequence of NADH dehydrogenase [ubiquinone] 1 alpha subcomplex subunit 13 (Q9P0J0 whole entry, one chain of several): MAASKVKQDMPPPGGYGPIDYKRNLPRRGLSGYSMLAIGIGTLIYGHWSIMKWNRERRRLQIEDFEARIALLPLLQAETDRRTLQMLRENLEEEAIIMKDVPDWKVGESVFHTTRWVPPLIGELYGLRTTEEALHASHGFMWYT
Sequence of Ribosomal protein S6 kinase alpha-6 (Q9UK32 whole entry, canonical isoform): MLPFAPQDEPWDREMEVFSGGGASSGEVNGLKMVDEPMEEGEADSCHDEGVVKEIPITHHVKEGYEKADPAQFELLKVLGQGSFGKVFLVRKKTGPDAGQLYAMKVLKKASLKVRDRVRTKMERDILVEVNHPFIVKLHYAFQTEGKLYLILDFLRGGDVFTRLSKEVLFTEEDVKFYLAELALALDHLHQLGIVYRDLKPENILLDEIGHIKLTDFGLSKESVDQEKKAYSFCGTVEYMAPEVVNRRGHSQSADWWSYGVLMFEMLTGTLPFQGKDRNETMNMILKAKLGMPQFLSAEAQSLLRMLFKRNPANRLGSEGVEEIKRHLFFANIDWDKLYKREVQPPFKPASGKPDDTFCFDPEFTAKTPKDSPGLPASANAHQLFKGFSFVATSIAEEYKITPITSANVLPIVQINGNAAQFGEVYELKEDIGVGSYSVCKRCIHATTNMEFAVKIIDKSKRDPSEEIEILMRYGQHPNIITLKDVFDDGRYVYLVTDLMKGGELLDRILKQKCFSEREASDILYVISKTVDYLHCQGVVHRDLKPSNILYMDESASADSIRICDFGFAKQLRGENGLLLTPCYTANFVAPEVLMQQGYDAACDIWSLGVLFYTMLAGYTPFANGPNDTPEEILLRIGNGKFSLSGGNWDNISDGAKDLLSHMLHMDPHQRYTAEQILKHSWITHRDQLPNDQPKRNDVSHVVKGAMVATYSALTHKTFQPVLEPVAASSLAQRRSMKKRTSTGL

Compound | Kd [1] | Kd [2] | Kd [3] | Kd [4] | Kd [5] | Kd [6] | Kd [7] | Kd [8] | Kd [9] | Kd [10] | Kd [11]
c1cc(OCCN2CCCCC2)cc(-c2n[nH]c3ccc(-c4nc[nH]n4)cc23)c1 [CC-401] | 2.34 µM (active) | > 30 µM (inactive) | 0.217 µM (active) | 1.46 µM (active) | > 30 µM (inactive) | 0.282 µM (active) | > 30 µM (inactive) | > 30 µM (inactive) | > 30 µM (inactive) | > 30 µM (inactive) | > 30 µM (inactive)
CC1(COc2ccc3c(c2)ncn3-c2ccc3cccc(N4CCC(N)CC4)c3n2)COC1 [CRENOLANIB] | 0.107 µM | > 30 µM (inactive) | 4.23 µM (active) | 2.41 µM (active) | 1.98 µM (active) | > 30 µM (inactive) | > 30 µM (inactive) | > 30 µM (inactive) | > 30 µM (inactive) | > 30 µM (inactive) | > 30 µM (inactive)
COc1cc2ncnc(Nc3ccc(F)c(Cl)c3)c2cc1NC(=O)/C=C/CN1CCCCC1 [DACOMITINIB ANHYDROUS] | > 30 µM (inactive) | > 30 µM (inactive) | > 30 µM (inactive) | 0.168 µM (active) | > 30 µM (inactive) | > 30 µM (inactive) | > 30 µM (inactive) | > 30 µM (inactive) | > 30 µM (inactive) | > 30 µM (inactive) | > 30 µM (inactive)
Cn1c(=O)n(-c2ccc(C(C)(C)C#N)cc2)c2c3cc(-c4cnc5ccccc5c4)ccc3ncc21 [DACTOLISIB] | > 30 µM (inactive) | > 30 µM (inactive) | > 30 µM (inactive) | > 30 µM (inactive) | > 30 µM (inactive) | > 30 µM (inactive) | > 30 µM (inactive) | > 30 µM (inactive) | > 30 µM (inactive) | > 30 µM (inactive) | > 30 µM (inactive)
CC[C@@](C)(Nc1ccnc(-c2c[nH]c3ncccc23)n1)C(=O)NCC(F)(F)F [DECERNOTINIB] | > 30 µM (inactive) | > 30 µM (inactive) | > 30 µM (inactive) | > 30 µM (inactive) | > 30 µM (inactive) | > 30 µM (inactive) | > 30 µM (inactive) | > 30 µM (inactive) | > 30 µM (inactive) | > 30 µM (inactive) | > 30 µM (inactive)
Cc1c(Cn2c(C)nc3c(C(=O)O)cc(N4CCOCC4)cc32)cccc1C(F)(F)F [GSK-2636771] | > 30 µM (inactive) | > 30 µM (inactive) | > 30 µM (inactive) | > 30 µM (inactive) | > 30 µM (inactive) | > 30 µM (inactive) | > 30 µM (inactive) | > 30 µM (inactive) | > 30 µM (inactive) | > 30 µM (inactive) | > 30 µM (inactive)
O=S(=O)(c1cccc2c(O)nccc12)N1CCCNCC1 [HYDROXYFASUDIL] | > 30 µM (inactive) | > 30 µM (inactive) | > 30 µM (inactive) | > 30 µM (inactive) | > 30 µM (inactive) | > 30 µM (inactive) | > 30 µM (inactive) | > 30 µM (inactive) | > 30 µM (inactive) | > 30 µM (inactive) | > 30 µM (inactive)
C#Cc1cccc(Nc2ncnc3cc4c(cc23)OCCOCCOCCO4)c1 [ICOTINIB] | > 30 µM (inactive) | > 30 µM (inactive) | > 30 µM (inactive) | 0.725 µM (active) | > 30 µM (inactive) | > 30 µM (inactive) | > 30 µM (inactive) | > 30 µM (inactive) | > 30 µM (inactive) | > 30 µM (inactive) | > 30 µM (inactive)
COc1cc2ncnc3c2cc1OCCCCCN(C)Cc1ccc(Br)cc1N3 [JNJ-26483327] | > 30 µM (inactive) | > 30 µM (inactive) | > 30 µM (inactive) | 0.12 µM (active) | > 30 µM (inactive) | > 30 µM (inactive) | > 30 µM (inactive) | 0.006 µM | > 30 µM (inactive) | > 30 µM (inactive) | > 30 µM (inactive)
Cc1ccc(C(=O)Nc2ccc(Oc3cc4cnn(C)c4cc3-c3cn[nH]c3)c(F)c2)c(=O)n1-c1ccc(F)cc1 [MERESTINIB] | > 30 µM (inactive) | > 30 µM (inactive) | > 30 µM (inactive) | > 30 µM (inactive) | > 30 µM (inactive) | > 30 µM (inactive) | > 30 µM (inactive) | > 30 µM (inactive) | > 30 µM (inactive) | > 30 µM (inactive) | > 30 µM (inactive)
O=C(NOC[C@H](O)CO)c1ccc(F)c(F)c1Nc1ccc(I)cc1F [MIRDAMETINIB] | > 30 µM (inactive) | > 30 µM (inactive) | > 30 µM (inactive) | > 30 µM (inactive) | > 30 µM (inactive) | > 30 µM (inactive) | > 30 µM (inactive) | > 30 µM (inactive) | > 30 µM (inactive) | > 30 µM (inactive) | > 30 µM (inactive)
COc1cccc2cc(-c3nc([C@H]4CC[C@H](C(=O)O)CC4)n4ncnc(N)c34)[nH]c12 [OSI-027] | > 30 µM (inactive) | > 30 µM (inactive) | > 30 µM (inactive) | > 30 µM (inactive) | > 30 µM (inactive) | > 30 µM (inactive) | > 30 µM (inactive) | > 30 µM (inactive) | > 30 µM (inactive) | > 30 µM (inactive) | > 30 µM (inactive)
O=C(Nc1ccc(OC(F)(F)F)cc1)c1sccc1NCc1ccnc2ccccc12 [OSI-930] | > 30 µM (inactive) | > 30 µM (inactive) | > 30 µM (inactive) | > 30 µM (inactive) | > 30 µM (inactive) | > 30 µM (inactive) | > 30 µM (inactive) | > 30 µM (inactive) | > 30 µM (inactive) | > 30 µM (inactive) | > 30 µM (inactive)
C=CC(=O)Nc1cc(Nc2nccc(-c3cn(C)c4ccccc34)n2)c(OC)cc1N(C)CCN(C)C [OSIMERTINIB] | > 30 µM (inactive) | > 30 µM (inactive) | > 30 µM (inactive) | > 30 µM (inactive) | > 30 µM (inactive) | > 30 µM (inactive) | > 30 µM (inactive) | > 30 µM (inactive) | > 30 µM (inactive) | > 30 µM (inactive) | > 30 µM (inactive)
